compound,measurement,setting,value
O=C(O)CCCCCCCCCCC(=O)O,solubility (mole fraction),"in 2-butanone, 288.15 K",0.0025
same,solubility (mole fraction),"in 2-butanone, 293.15 K",0.0036
same,solubility (mole fraction),"in 2-butanone, 298.15 K",0.005
same,solubility (mole fraction),"in 2-butanone, 303.15 K",0.007
same,solubility (mole fraction),"in 2-butanone, 308.15 K",0.0097
same,solubility (mole fraction),"in 2-butanone, 313.15 K",0.0133
same,solubility (mole fraction),"in 2-butanone, 318.15 K",0.0189
same,solubility (mole fraction),"in 2-butanone, 323.15 K",0.0255
same,solubility (mole fraction),"in 3-pentanone, 288.15 K",0.0013
same,solubility (mole fraction),"in 3-pentanone, 293.15 K",0.0018
same,solubility (mole fraction),"in 3-pentanone, 298.15 K",0.0026
same,solubility (mole fraction),"in 3-pentanone, 303.15 K",0.0036
same,solubility (mole fraction),"in 3-pentanone, 308.15 K",0.005
same,solubility (mole fraction),"in 3-pentanone, 313.15 K",0.0068
same,solubility (mole fraction),"in 3-pentanone, 318.15 K",0.0094
same,solubility (mole fraction),"in 3-pentanone, 323.15 K",0.0128
same,solubility (mole fraction),"in acetic acid, 288.15 K",0.0032
same,solubility (mole fraction),"in acetic acid, 293.15 K",0.0045
same,solubility (mole fraction),"in acetic acid, 298.15 K",0.006
same,solubility (mole fraction),"in acetic acid, 303.15 K",0.0079
same,solubility (mole fraction),"in acetic acid, 308.15 K",0.0112
same,solubility (mole fraction),"in acetic acid, 313.15 K",0.0155
same,solubility (mole fraction),"in acetic acid, 318.15 K",0.02
same,solubility (mole fraction),"in acetic acid, 323.15 K",0.0268
same,solubility (mole fraction),"in acetone, 288.15 K",0.003
same,solubility (mole fraction),"in acetone, 293.15 K",0.0041
same,solubility (mole fraction),"in acetone, 298.15 K",0.0058
same,solubility (mole fraction),"in acetone, 303.15 K",0.0077
same,solubility (mole fraction),"in acetone, 308.15 K",0.0107
same,solubility (mole fraction),"in acetone, 313.15 K",0.0145
same,solubility (mole fraction),"in acetone, 318.15 K",0.0193
same,solubility (mole fraction),"in acetone, 323.15 K",0.0257
same,solubility (mole fraction),"in ethanol, 288.15 K",0.0083
same,solubility (mole fraction),"in ethanol, 293.15 K",0.0107
same,solubility (mole fraction),"in ethanol, 298.15 K",0.0145
same,solubility (mole fraction),"in ethanol, 303.15 K",0.0194
same,solubility (mole fraction),"in ethanol, 308.15 K",0.025
same,solubility (mole fraction),"in ethanol, 313.15 K",0.0317
same,solubility (mole fraction),"in ethanol, 318.15 K",0.0408
same,solubility (mole fraction),"in ethanol, 323.15 K",0.0516
same,solubility (mole fraction),"in ethyl acetate, 288.15 K",0.0012
same,solubility (mole fraction),"in ethyl acetate, 293.15 K",0.0017
same,solubility (mole fraction),"in ethyl acetate, 298.15 K",0.0024
same,solubility (mole fraction),"in ethyl acetate, 303.15 K",0.0034
same,solubility (mole fraction),"in ethyl acetate, 308.15 K",0.0048
same,solubility (mole fraction),"in ethyl acetate, 313.15 K",0.0066
same,solubility (mole fraction),"in ethyl acetate, 318.15 K",0.009
same,solubility (mole fraction),"in ethyl acetate, 323.15 K",0.0122
